These are literature values, as cited in patent US20180344745A1, “TREATMENT OF DEVELOPMENTAL DISORDERS WITH IMIDAZOLONE DERIVATIVES” (Ovid Therapeutics Inc., priority 2017, published 2018).

The conditions of the series: smokers versus non-smokers.

The structures appear in SMILES notation.

Turning to `O=C1N=C(N2CCOCC2)CN1c1ccc(Cl)cc1` [imepitoin, 1-(4-chlorophenyl)-4-morpholino-imidazolin-2-one], the elimination entry is recorded as “more rapidly eliminated in smokers than in non-smokers”.
